In brackets after ≈: the same amount, converted by molar mass.
Tests used:
[1] = Stability in rat liver microsomes after 30 min; assay type: ADME, Microsome; details: read-out: Stability
[2] = Permeability by PAMPA assay; assay type: ADME; details: read-out: permeability
[3] = Plasma concentration in nude mouse after 4 hrs at 50 mg/kg, po; assay type: ADME, organism-based; parameters: dose 50 mg/kg, route oral
[4] = biological target: RAC-alpha serine/threonine-protein kinase (Homo sapiens, UniProt P31749); experiment: Inhibition of AKT
Chain of RAC-alpha serine/threonine-protein kinase (P31749 whole entry): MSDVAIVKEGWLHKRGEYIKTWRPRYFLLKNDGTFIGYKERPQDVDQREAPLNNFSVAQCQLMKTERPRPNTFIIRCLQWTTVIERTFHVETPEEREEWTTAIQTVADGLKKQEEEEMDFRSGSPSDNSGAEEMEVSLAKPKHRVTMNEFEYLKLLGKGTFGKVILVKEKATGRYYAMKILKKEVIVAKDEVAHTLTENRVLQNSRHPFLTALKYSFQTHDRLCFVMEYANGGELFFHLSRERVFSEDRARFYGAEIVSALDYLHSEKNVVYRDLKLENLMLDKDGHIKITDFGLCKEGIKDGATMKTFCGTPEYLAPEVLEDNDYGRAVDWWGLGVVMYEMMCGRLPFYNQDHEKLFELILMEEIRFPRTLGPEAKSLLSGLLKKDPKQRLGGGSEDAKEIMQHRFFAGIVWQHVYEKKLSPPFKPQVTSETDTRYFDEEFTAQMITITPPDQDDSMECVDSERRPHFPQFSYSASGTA

[5] = biological target: Cyclin-dependent kinase 4 (Homo sapiens, UniProt P11802); experiment: Inhibition of CDK4
Chain of Cyclin-dependent kinase 4 (P11802 whole entry): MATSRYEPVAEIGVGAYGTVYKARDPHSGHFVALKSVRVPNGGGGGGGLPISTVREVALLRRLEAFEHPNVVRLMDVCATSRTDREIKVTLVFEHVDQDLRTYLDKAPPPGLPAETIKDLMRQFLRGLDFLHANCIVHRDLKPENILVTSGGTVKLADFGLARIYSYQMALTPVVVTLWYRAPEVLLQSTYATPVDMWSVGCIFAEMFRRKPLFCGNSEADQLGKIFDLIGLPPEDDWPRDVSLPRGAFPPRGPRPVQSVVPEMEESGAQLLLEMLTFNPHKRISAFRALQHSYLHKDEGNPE

[6] = biological target: Epidermal growth factor receptor (Homo sapiens, UniProt P00533); experiment: Inhibitory activity against EGFR
Chain of Epidermal growth factor receptor (P00533 whole entry): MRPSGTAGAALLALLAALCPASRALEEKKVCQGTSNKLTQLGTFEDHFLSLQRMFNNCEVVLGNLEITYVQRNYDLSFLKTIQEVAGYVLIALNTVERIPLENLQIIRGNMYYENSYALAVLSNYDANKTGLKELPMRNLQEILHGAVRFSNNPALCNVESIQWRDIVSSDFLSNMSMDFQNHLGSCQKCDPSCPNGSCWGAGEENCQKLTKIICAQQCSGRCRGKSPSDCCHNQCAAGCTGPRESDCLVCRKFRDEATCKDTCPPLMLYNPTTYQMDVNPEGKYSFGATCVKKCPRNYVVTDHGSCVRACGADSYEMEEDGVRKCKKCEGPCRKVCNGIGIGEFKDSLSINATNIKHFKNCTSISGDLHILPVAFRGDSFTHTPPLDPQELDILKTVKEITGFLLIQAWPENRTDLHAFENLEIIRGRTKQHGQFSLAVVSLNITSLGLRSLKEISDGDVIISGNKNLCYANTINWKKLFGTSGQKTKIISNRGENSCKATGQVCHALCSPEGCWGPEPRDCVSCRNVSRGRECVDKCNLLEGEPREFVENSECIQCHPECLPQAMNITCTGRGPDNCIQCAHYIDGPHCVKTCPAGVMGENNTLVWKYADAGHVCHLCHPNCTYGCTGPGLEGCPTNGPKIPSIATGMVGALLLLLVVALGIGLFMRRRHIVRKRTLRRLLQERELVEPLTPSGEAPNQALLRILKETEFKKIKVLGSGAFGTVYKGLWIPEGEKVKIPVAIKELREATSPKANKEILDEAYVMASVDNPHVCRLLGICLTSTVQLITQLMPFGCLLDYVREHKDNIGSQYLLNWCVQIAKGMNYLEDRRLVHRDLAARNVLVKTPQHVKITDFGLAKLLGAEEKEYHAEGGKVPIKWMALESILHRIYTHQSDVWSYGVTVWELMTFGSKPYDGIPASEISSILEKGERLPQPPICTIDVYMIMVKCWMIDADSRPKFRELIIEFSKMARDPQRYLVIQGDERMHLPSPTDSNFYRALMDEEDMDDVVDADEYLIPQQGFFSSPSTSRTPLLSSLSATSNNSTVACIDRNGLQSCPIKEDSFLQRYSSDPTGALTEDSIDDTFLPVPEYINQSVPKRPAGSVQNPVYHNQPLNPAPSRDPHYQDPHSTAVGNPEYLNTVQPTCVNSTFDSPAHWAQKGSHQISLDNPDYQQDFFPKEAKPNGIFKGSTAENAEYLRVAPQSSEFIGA

[7] = Stability in nude mouse liver microsomes; assay type: ADME, Microsome
[8] = biological target: T1, 3-phosphoinositide-dependent protein kinase 1 (Homo sapiens, UniProt O15530); experiment: Inhibitory activity against PDK1
T1 sequence (O15530 whole entry): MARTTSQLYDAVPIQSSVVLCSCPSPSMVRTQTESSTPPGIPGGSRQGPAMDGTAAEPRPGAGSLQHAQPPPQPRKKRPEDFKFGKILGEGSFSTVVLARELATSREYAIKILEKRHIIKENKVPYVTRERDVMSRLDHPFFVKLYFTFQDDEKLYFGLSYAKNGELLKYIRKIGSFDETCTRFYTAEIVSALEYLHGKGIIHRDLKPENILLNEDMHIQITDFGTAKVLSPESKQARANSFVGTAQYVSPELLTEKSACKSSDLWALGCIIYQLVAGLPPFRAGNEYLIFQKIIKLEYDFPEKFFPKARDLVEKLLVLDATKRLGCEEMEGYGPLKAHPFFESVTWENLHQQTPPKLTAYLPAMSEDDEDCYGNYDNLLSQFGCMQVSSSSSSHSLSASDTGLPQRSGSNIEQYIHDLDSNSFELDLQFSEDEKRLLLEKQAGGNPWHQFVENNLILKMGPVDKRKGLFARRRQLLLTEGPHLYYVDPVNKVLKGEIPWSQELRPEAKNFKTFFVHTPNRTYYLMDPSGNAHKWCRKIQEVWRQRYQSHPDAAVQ

[9] = Plasma concentration in nude mouse after 8 hrs at 50 mg/kg, po; assay type: ADME, organism-based; parameters: dose 50 mg/kg, route oral
[10] = biological target: Proto-oncogene tyrosine-protein kinase Src (Homo sapiens, UniProt P12931); experiment: Inhibition of Src
Chain of Proto-oncogene tyrosine-protein kinase Src (P12931 2-536 limits assumed): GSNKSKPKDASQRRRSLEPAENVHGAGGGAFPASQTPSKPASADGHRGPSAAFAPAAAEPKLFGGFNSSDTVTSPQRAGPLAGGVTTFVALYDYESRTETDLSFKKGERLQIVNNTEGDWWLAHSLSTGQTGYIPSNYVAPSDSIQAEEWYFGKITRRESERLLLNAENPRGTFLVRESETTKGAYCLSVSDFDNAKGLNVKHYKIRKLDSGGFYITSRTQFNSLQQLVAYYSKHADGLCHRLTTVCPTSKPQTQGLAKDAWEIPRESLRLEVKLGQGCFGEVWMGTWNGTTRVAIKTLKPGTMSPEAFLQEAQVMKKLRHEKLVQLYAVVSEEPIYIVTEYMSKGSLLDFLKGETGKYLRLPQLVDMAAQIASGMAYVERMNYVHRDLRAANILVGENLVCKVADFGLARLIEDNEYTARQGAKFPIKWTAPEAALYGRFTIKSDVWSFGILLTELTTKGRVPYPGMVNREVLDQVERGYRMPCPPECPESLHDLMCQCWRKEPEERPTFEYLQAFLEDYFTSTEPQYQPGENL

Mus musculus = experiment: Toxicity in nude mouse at 150 mg/kg, po; assay type: organism-based; parameters: dose 150 mg/kg, route oral; details: in vivo
[11] = biological target: Vascular endothelial growth factor receptor 2 (Homo sapiens, UniProt P35968); experiment: Inhibition of KDR
Chain of Vascular endothelial growth factor receptor 2 (P35968 whole entry): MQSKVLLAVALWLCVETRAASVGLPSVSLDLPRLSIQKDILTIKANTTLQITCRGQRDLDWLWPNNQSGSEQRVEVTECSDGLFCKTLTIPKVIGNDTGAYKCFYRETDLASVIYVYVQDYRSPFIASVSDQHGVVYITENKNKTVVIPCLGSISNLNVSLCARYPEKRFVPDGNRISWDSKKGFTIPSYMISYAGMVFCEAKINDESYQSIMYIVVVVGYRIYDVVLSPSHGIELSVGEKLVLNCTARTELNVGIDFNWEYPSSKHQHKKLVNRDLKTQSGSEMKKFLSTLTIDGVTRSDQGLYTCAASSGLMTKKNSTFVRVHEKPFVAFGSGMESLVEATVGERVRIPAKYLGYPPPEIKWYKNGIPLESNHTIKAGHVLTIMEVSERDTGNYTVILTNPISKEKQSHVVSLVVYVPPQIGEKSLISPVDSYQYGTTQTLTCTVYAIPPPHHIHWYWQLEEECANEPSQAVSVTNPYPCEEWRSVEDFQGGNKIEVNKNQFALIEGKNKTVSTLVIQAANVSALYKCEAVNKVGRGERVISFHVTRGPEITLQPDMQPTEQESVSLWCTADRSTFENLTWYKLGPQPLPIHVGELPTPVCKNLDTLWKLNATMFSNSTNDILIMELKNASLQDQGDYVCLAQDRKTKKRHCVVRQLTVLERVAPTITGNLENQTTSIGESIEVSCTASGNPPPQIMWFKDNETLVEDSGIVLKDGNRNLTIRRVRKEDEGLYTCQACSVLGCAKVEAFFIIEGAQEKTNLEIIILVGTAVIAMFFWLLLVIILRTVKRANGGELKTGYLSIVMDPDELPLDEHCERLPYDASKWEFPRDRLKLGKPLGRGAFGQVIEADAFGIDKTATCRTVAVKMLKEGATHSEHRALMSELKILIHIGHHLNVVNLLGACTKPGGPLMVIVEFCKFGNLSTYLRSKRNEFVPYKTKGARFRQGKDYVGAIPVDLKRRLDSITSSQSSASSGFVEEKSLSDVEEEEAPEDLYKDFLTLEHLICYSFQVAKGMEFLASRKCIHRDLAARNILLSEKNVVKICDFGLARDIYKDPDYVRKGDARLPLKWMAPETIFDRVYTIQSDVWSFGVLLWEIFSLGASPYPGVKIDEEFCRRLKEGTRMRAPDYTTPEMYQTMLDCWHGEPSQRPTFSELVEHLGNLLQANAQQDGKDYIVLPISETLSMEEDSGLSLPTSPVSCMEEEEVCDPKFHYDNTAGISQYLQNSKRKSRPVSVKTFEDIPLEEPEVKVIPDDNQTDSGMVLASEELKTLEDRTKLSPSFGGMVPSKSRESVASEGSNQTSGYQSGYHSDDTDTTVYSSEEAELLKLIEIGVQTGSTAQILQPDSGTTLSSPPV

HT-29 = experiment: Antitumor activity against HT29 cells xenografted in nude mouse after 21 days at 150 mg/kg, po; assay type: functional, Homo sapiens
[12] = Solubility at pH 4.5; assay type: physicochemical; details: buffer
[13] = Plasma concentration in nude mouse after 24 hrs at 50 mg/kg, po; assay type: ADME, organism-based; parameters: dose 50 mg/kg, route oral

COc1cc(Nc2c(C#N)cnc3cc(-c4coc(CN5CCN(C)CC5)c4)c(OC)cc23)c(Cl)cc1Cl
remaining at 0.5 h [1]: 72%
Papp [2]: 2 ×10⁻⁶ cm/s
concentration at 4 h [3]: 1140 ng/mL
IC50 [4]: > 1000 nM
IC50 [5]: > 1000 nM
IC50 [6]: 230 nM
half-life [7]: 32 min
IC50 [8]: > 1000 nM
concentration at 8 h [9]: 1030 ng/mL
IC50 [10]: 0.78 nM
Activity (Mus musculus): Non-toxic
IC50 [11]: > 1000 nM
Activity (HT-29): 38%
solubility [12]: 63 µg/mL (≈ 114 µM)
concentration at 24 h [13]: 103 ng/mL
